Columns and labels:
[1] = test system: AMPK; test: AMPK activation (pT172-AMPK) in C2C12 myocytes; format: cell-based, mouse; conditions: 1 mM
Experimental: Cell culture—Mouse C2C12 myoblasts were obtained from American Type Culture Collection (Manassas, Va.), and were maintained in Dulbecco's modified Eagle's medium (DMEM) supplemented with 10% fetal bovine serum at 37° C. under a humidified atmosphere of 5% CO2.
C2C12 cells were seeded at an initial density of 6×10^4 cells/cm^2 in 24-well plates. For two days, the cells were allowed grow to reach confluence. Following confluence, the cells were forced to differentiate into myocytes by culturing in DMEM supplemented with 2% horse serum for seven days.
Treatment—On Day 8 to 10 post differentiation, C2C12 myocytes were incubated in serum-free DMEM plus 0.5% BSA (bovine serum albumin) for three hours. […]
Measuring activated AMPKa—pT^172-AMPK was quantified using the Biosource AMPK Immunoassay Kit (Camarillo, Calif.) without modification. Protein content of the cell lysates was determined with the Active Motif fluorescent protein assay reagent (Carlsbad Calif., Hoefelschweiger, B. K., Duerkop, A., and Wolfbeis, O. S. Novel type of general protein assay using a chromogenic and fluorogenic amine-reactive probe. Anal Biochem 2005, 344, 122-9). A Packard Fluorocount spectrofluorometer (Model #BF 10000, Meridan, Conn.) was used for protein determination and a MEL312e BIO-KINETICS READER (Bio-Tek Instruments, Winooski, Vt.) was used for quantification of pT^172-AMPK. […]

[2] = test system: adiponectin secretion in 3T3-L1 adipocytes; test: Adiponectin secretion in t10-CLA-stimulated 3T3-L1 adipocytes; format: cell-based, murine
Experimental: Treatment—Test materials were added four hours prior to the addition of t10-CLA at a concentration of 50 μM. Following overnight incubation, the supernatant media were sampled for determination of IL-6 and adiponectin. Adiponectin assay—The adiponectin secreted into the medium was quantified using the Mouse Adiponectin Quantikine® Immunoassay kit with no modifications (R&D Systems, Minneapolis, Minn.). […] Statistical Calculations and Interpretation—Test materials and were assayed in duplicate, while solvent controls were replicated eight times. IL-6 and adiponectin secretion were represented relative to the IL-6 and adiponectin secretion of the t10-CLA only controls as the IL-6 and adiponectin index and differences among the means were analyzed by the student's t-test assuming a five percent probability of a type I error (Excel; Microsoft, Redmond, Wash.).

[3] = test system: IL-6 secretion in 3T3-L1 adipocytes; test: IL-6 secretion in t10-CLA-stimulated 3T3-L1 adipocytes; format: cell-based, murine
Experimental: Treatment—Test materials were added four hours prior to the addition of t10-CLA at a concentration of 50 μM. Following overnight incubation, the supernatant media were sampled for determination of IL-6 and adiponectin. Interleukin-6 assay—The IL-6 secreted into the medium in response to […] stimulation was quantified using the Quantikine® Mouse IL-6 Immunoassay kit with no modifications (R&D Systems, Minneapolis, Minn.). […] All supernatant media samples were diluted 1:30 for quantification. Statistical Calculations and Interpretation—Test materials and were assayed in duplicate, while solvent controls were replicated eight times. IL-6 and adiponectin secretion were represented relative to the IL-6 and adiponectin secretion of the t10-CLA only controls as the IL-6 and adiponectin index and differences among the means were analyzed by the student's t-test assuming a five percent probability of a type I error (Excel; Microsoft, Redmond, Wash.).

[4] = test system: Caco-2 monolayers; test: t10-CLA-induced loss of transepithelial electrical resistance in Caco-2 monolayers; format: cell-based, human; conditions: 50 μM t10-CLA stimulus, positive control set to 100; each material at its tabulated concentration (TQ 5.0, NS8 0.11, NS9 0.99, NS10 0.012, NSSpent#2 0.0005 μg TQ equivalents/mL; Spent#1 5 μg/mL)
Description: Caco-2 Cells-The protocol for growing and differentiation the human Caco-2 colon andenocarcinoma cells was a modification of Protocol 3 as described by Yamashita et al. [[…]., and Furuyama, Y. (2002) New and better protocols for a short-term Caco-2 cell culture system, J Pharm Sci 91, 669-679]. Caco-2 Human Colon Adenocarcinoma cells were obtained from ATCC (Rockville, Md.; catalog #HTB-37) and maintained in a growth media: DMEM (Dulbecco's Modified Eagles Medium 1×) containing L-glutamine, glucose; Cellgro catalog #35-010CV with the following additions: (1) Penicillin (5,000 IU/mL)/Streptomycin (5,000 μg/mL) Cellgro catalog #30-001C1, (2) 10% FBS-Fetal Bovine Serum, Characterized; Hyclone catalog #SH30071.3, and (3) 1% NEAA-Non Essential Amino Acids; Cellgro catalog #25-025-CI; cells were cultured at 37 C in a humidified air-5% CO2 atmosphere in T175 flasks. Differentiation of Caco-2 cells to intestinal epithelial cells-BIOCOAT^R HTS Caco-2 Assay System kits (Becton Dickinson, N.J.; catalog #354801) consisting of 24-well fibrillar collagen coated inserts and feeder trays were used in all experiments and plated as follows. Media was removed from the T175 flasks and cells were washed with 10 mLs PBS (phosphate buffered saline 1× without Ca^++, without Mg^++; Cellgro #25-053-CI). PBS was removed and 5 mL of Trypsin/EDTA (1×, 0.25% Trypsin/2.21 mM EDTA in HBSS; Cellgro #25-053-CI) were added to the flask and the flask placed at 37 C until cells were visibly floating, approximately 3-5 minutes. Five mL of growth media were added to the flask to neutralize the trypsin. This solution was then transferred to a sterile 50 mL tube. Eight μL were sampled and placed in a hemocytometer for counting under a microscope. Five-hundred μL of cell solution were placed in the upper chamber of each insert so that the final density per well was at least 6.6×10^5 cells/cm^2. Thirty-five mL of growth media were then added to the feeder tray and plate incubated at 37 C with 5% CO2 and 100% humidity for 20-24 hours. […]

[5] = relative to t10-CLA only control (100), 50 μM t10-CLA, overnight, each material at its tabulated concentration

SMILES | increase in pT172-AMPK relative to DMSO negative controls ([1]; average over ten independent assays, 95% CI=1.26-2.21) [fold] | AMPK activation ([1]; in assays run with N. sativa supercritical CO2 extracts) [fold] | reduction in adiponectin secretion relative to controls ([2]; 50 μM) [%] | Adiponectin Index [2, 5] | increase in IL-6 secretion relative to controls ([3]; 50 μM) [fold] | IL-6 Index [3, 5] | Relative Loss of TEER [4]
NC(=O)c1ncn([C@@H]2O[C@H](CO)[C@@H](O)[C@H]2O)c1N [AICAR, 5-Aminoimidazole-4-carboxamide ribonucleoside] | 1.67 | 1.45 |  |  |  |  | 
CCCCC/C=C\C=C\CCCCCCCCC(=O)O [t10-CLA, trans-10, cis12-Conjugated Linoleic Acid] |  |  | 65 | 100 ± 14 | 8 | 100 ± 11 | 100 ± 5.81

Reference: patent US8535740B2, “Compositions from Nigella sativa” (priority 2002, dated 2013)
